Patent US8318196B2, “Formulations comprising a vitamin and the use thereof to make fortified feed and personal care formulations” (Akzo Nobel N.V., priority 2006, dated 2012)

Assay: Transmission of aqueous vitamin / castor oil ethoxylate formulations (Turbiscan LAb)
Type: physicochemical
Details: ingredients preheated to 50° C.
Method: Castor oil ethoxylates were evaluated in formulations with various vitamins by mixing 4 g of a vitamin with 4 g of the castor oil ethoxylate and subsequently adding 28 g water. All ingredients were preheated to 50° C. The transmission (light passing the through the emulsion) was measured using standard Turbiscan™ LAb equipment ex Formulaction. In the evaluation of the samples the highest transmission is looked for, since it indicates a clearer (and better) formulation.

[1] = Comparative Example B: 4 g vitamin + 4 g CO36EO + 28 g water, unit assumed
[2] = Example 1: 4 g vitamin + 4 g CO20EO + 28 g water, higher = clearer, better, unit assumed

Row | SMILES | transmission (light passing through the emulsion) (Comparative Example A: 4 g vitamin + 4 g CO28EO + 28 g water) | transmission (light passing through the emulsion) [1] [%] | transmission (light passing through the emulsion) [2] [%] | transmission (light passing through the emulsion) (Comparative Example A: 4 g vitamin + 4 g CO28EO + 28 g water, unit assumed) [%]
1 | CC(=O)OC/C=C(C)/C=C/C=C(C)/C=C/C1=C(C)CCCC1(C)C [Vit A acetate] | Not stable | 0 | 2.2 | –
2 | C=C1CC[C@H](O)C/C1=C/C=C1\CCC[C@]2(C)[C@@H]([C@H](C)CCCC(C)C)CC[C@@H]12 [Vit D3] | – | 2 | 56.7 | 64.4
